Laboratory results from PubChem BioAssay (NCI).
Where “and” joins values, the source holds several entries; their conditions need not be identical. Equal values may be shown once.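 Method: 48-hour compound exposure of cells in 96-well plates, five concentrations, linear interpolation of endpoints. At the GI50, growth is halved. At the TGI there is no net growth.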

Experiments:
Experiment in all cases: NCI tumour cell line growth inhibition, 48 h
[1] = test system: SW-620 colon
[2] = test system: 786-0 renal
[3] = test system: SK-MEL-2 melanoma
[4] = test system: NCI-H522 lung
[5] = test system: M14 melanoma
[6] = test system: U251 CNS
[7] = test system: NCI-H460 lung
[8] = test system: SNB-19 CNS
[9] = test system: HS 578T breast
[10] = test system: K-562 leukemia

SMILES | TGI [1] | TGI [2] | TGI [3] | TGI [4] | TGI [5] | TGI [6] | TGI [7] | TGI [8] | TGI [9] | TGI [10] | GI50 [1] | GI50 [3] | GI50 [4] | GI50 [5] | GI50 [6] | GI50 [7] | GI50 [8] | GI50 [10] | GI50 [9]
CCCSC1=N/C(=C\c2ccco2)C(=O)N1 | > 100 µM | > 100 µM | > 100 µM | > 100 µM | > 100 µM | > 100 µM | > 100 µM | > 100 µM | > 100 µM |  |  |  |  |  |  |  |  |  | 
COc1ccc(Sc2ccccc2[N+](=O)[O-])cc1 | > 100 µM |  | > 100 µM |  | > 100 µM | 41.3 µM | > 100 µM | > 100 µM |  | > 100 µM |  |  |  |  |  |  |  |  | 
Clc1cc2ncn(C3CCCO3)c2cc1Cl (centres undefined) | > 100 µM | > 100 µM | > 100 µM | > 100 µM | > 100 µM | > 100 µM |  | > 100 µM | > 100 µM | > 100 µM |  |  |  |  |  |  |  |  | 
FC(F)(Sc1nc2ccccc2[nH]1)c1nc2ccccc2o1 | > 100 µM | > 100 µM | > 100 µM | 31.8 µM | > 100 µM | > 100 µM | > 100 µM |  | > 100 µM | > 100 µM |  |  |  |  |  |  |  |  | 
COc1ccc2c(C=O)c3n(c(=O)c2c1OC)CCc1cc2c(cc1-3)OCO2 | > 100 µM | > 100 µM | > 100 µM | > 100 µM | > 100 µM | > 100 µM | > 100 µM | > 100 µM | > 100 µM |  |  |  |  |  |  |  |  |  | 
Cc1cc(N(CCCl)CCCl)ccc1/C=N\NC(=O)c1cccnc1 | > 100 µM |  | 59 µM | 32.3 µM | > 100 µM | > 100 µM | 23.3 µM | > 100 µM | > 100 µM | > 100 µM | 30.3 µM | 27.3 µM | 15.2 µM | 34.4 µM | 21.6 µM | 0.685 µM | > 100 µM | 20.1 µM | 48.6 µM
CCCCCNC(=O)OC1CCn2c1nc1c2C(=O)C(C)=C(N2CC2)C1=O (centres undefined) |  | 1.75 µM | 3.7 µM | 3.4 µM | 4.04 µM | 4.7 µM | 1.05 µM | 11.5 µM | 6.24 µM | 7.75 µM |  |  |  |  |  |  |  |  | 
CCCCC(C)(C/C=C/[C@@H]1[C@@H](C(O)CCCCCC(=O)OC)C(=O)C[C@H]1O[Si](C)(C)C(C)(C)C)O[Si](C)(C)C (some centres undefined) | > 100 µM | > 100 µM | > 100 µM | > 100 µM | > 100 µM | > 100 µM | > 100 µM | > 100 µM |  | > 100 µM |  |  |  |  |  |  |  |  | 
COc1ccc(N=C(SSC(=Nc2ccc(OC)cc2)c2ccc([N+](=O)[O-])o2)c2ccc([N+](=O)[O-])o2)cc1 |  | 4.18 µM | 4.73 µM | 0.953 µM | 4.98 µM | 1.62 µM | > 24.3 µM | 3.26 µM | 5.43 µM | > 25.3 µM |  |  |  |  |  |  |  |  | 
COc1ccc(-c2cc(-c3ccc(Nc4ccnc5cc(C(F)(F)F)ccc45)cc3)nc(N)c2C#N)c2ccccc12 | > 100 µM | > 100 µM | > 100 µM |  | > 100 µM | > 100 µM | > 100 µM | > 100 µM | > 100 µM |  |  |  |  |  |  |  |  |  | 
COC1=C(C)C(=O)C2=C(C1=O)C1C3CC4=C(C(=O)C(OC)=C(C)C4=O)C(CNC(=O)C(C)=O)N3C(C#N)C(C2)N1C (centres undefined) | 0.297 µM and 0.125 µM |  |  |  |  |  | 0.0318 µM and 0.211 µM and 0.151 µM | 1.45 µM and 0.958 µM | 0.00238 µM |  |  |  |  |  |  |  |  |  | 
Cn1c(=O)c2c(n(C)c1=O)n1c(=O)c3ccccc3nc1n2C | > 100 µM | > 100 µM | > 100 µM | > 100 µM | > 100 µM | > 100 µM |  | > 100 µM | > 100 µM | > 100 µM |  |  |  |  |  |  |  |  | 
O=C(Nc1nc2ccc([N+](=O)[O-])cc2s1)c1cc([N+](=O)[O-])ccc1Cl | 5.59 µM | 11.7 µM |  | 4.39 µM |  | 12.1 µM |  |  |  |  |  |  |  |  |  |  |  |  | 
COC(=O)C1=C(C)C(=O)C2(CCCCCC2C(=O)OC)C1 (centres undefined) | > 100 µM | > 100 µM | > 100 µM | > 100 µM | > 100 µM | > 100 µM | > 100 µM | > 100 µM |  | > 100 µM |  |  |  |  |  |  |  |  | 
COc1ccc(-c2cc(=O)c3cc(OC)c(OC)cc3[nH]2)cc1OC | > 100 µM | > 100 µM |  | > 100 µM | > 100 µM | > 100 µM | > 100 µM | > 100 µM | > 100 µM | > 100 µM |  |  |  |  |  |  |  |  | 
CC1SCCc2nc3ccccc3n21 (centres undefined) | > 100 µM | > 100 µM | > 100 µM |  | > 100 µM | > 100 µM | > 100 µM | > 100 µM | > 100 µM | > 100 µM |  |  |  |  |  |  |  |  | 
O=C(C[N+]1(c2ccccc2)CCOCC1)c1ccccc1 |  | > 100 µM | > 100 µM | > 100 µM | > 100 µM | > 100 µM | > 100 µM | > 100 µM | > 100 µM | > 100 µM |  |  |  |  |  |  |  |  | 
COc1ccc(OC)c2c(Nc3ccc(S(=O)(=O)O)c4cc(S(=O)(=O)O)cc(S(=O)(=O)O)c34)cc(C)nc12 | > 100 µM | > 100 µM | > 100 µM | > 100 µM | > 100 µM | > 100 µM | > 100 µM |  | > 100 µM | > 100 µM |  |  |  |  |  |  |  |  | 
Cc1cccc2c1Oc1ncccc1C2NC(=O)CN(C)C (centres undefined) | > 10 µM | > 10 µM | > 10 µM | > 10 µM | > 10 µM | > 10 µM | > 10 µM | > 10 µM |  | > 10 µM |  |  |  |  |  |  |  |  | 
CCc1n[nH]c(=O)n1-c1ccncc1 | > 100 µM | > 100 µM |  | > 100 µM | > 100 µM | > 100 µM | > 100 µM | > 100 µM | > 100 µM | > 100 µM |  |  |  |  |  |  |  |  | 
NNC(=O)COc1nc(-c2cccs2)nc2ccc(I)cc12 | > 100 µM | 78.8 µM | 71.3 µM | 45.8 µM | 58.3 µM | 55.8 µM | 70.4 µM | 39.2 µM |  | > 100 µM |  |  |  |  |  |  |  | 37 µM | 
CC(=O)Nc1ccc(C(=O)NN2C(=O)CSC2c2ccccc2)cc1 (centres undefined) | > 100 µM | > 100 µM | > 100 µM |  | > 100 µM | > 100 µM | > 100 µM | > 100 µM | > 100 µM | > 100 µM |  |  |  |  |  |  |  |  | 
CC(C)=C[C@@H]1C[C@H](C)[C@H]2CC[C@H](C)[C@H]3C(=O)C(O)=C(C)C(=O)[C@]123 | > 100 µM | > 100 µM |  | > 100 µM | > 100 µM | > 100 µM | > 100 µM | > 100 µM | > 100 µM | > 100 µM |  |  |  |  |  |  |  |  | 
